US11590102B2, “Anti-methanogenic lovastatin analogs or derivatives and uses thereof” (CEDARS-SINAI MEDICAL CENTER, priority 2015, dated 2023)

System: methane production in human stool
Assay: Methane production in human stool homogenates of IBS-C patients (head gas analysed by gas chromatography)
Assay type: cell-based
Settings: stool homogenates of methane-producing human IBS-C patients, anaerobic chamber; 0.5, 1, 5 and 10 mg of statin per g of stool; head gas at baseline, 90 minute intervals for 3 hours and overnight (~720 min); FIG. 4
Experimental: Fresh stool samples were provided by two methane-producing human IBS-C patients (breath methane>10 ppm) who had provided an informed consent. Different concentrations of stool from each patient were homogenized in deoxygenated PBS (3 ml PBS/2 g stool) inside an anaerobic incubation chamber. Plead gas was extracted through a stopcock at various timepoints ([…], and following overnight incubation) and methane levels in the head gas at each timepoint were analyzed by gas chromatography using a Quintron SC gas chromatograph (Quintron Instrument Company, Milwaukee, Wis.).
The effects of lovastatin lactone, lovastatin ß-hydroxyacid and lovastatin diol on methane production were evaluated by incubating various concentrations of these molecules (0 mg, 0.5 mg, 1 mg, 5 mg and 10 mg of statin per g of human stool) with human stool homogenates in an anaerobic chamber as described above. Plead gas samples were drawn from each flask for methane analysis at baseline and at 90 minute intervals for 3 hours, followed by a final sample after overnight incubation (˜720 min).

SMILES: C[C@H]1C=C2C=C[C@H](C)[C@H](CCC3C[C@@H](O)CC(=O)O3)[C@H]2[C@@H](O)C1 (stereo partly drawn) [lovastatin diol lactone]
- inhibition of methane production in human stool: effective inhibitors of methane production

SMILES: CC[C@H](C)C(=O)O[C@H]1C[C@@H](C)C=C2C=C[C@H](C)[C@H](CC[C@@H]3C[C@@H](O)CC(=O)O3)[C@H]21 [Lovastatin lactone, lovastatin lactone]
- inhibition of methane production in human stool: effective inhibitors of methane production

SMILES: CC[C@H](C)C(=O)O[C@H]1C[C@@H](C)C=C2C=C[C@H](C)[C@H](CC[C@@H](O)C[C@@H](O)CC(=O)O)[C@H]21 [lovastatin R-hydroxyacid, lovastatin ß-hydroxyacid]
- inhibition of methane production in human stool: ineffective as an inhibitor of methane production
